Measured values taken from patent US10889553B2, “Asymmetric triazole benzamide derivatives and the compositions and methods of treatment regarding the same” (NysnoBio Ireland DAC, priority 2017, dated 2021).
Where two headings read alike, the source gives them in different places.

Key:
[1] = molecular target: T1, Parkin ligase (Homo sapiens, UniProt O60260); test: Activity-Based Probe Assay using Ubiquitin vinyl sulfone probe (TR-FRET); type: biochemical; settings: heat activated Parkin, HA-Ub-VS probe, activation EC50; read-out: Probe Assay EC50 (μM) [Example 2]
T1 sequence (O60260 1-465): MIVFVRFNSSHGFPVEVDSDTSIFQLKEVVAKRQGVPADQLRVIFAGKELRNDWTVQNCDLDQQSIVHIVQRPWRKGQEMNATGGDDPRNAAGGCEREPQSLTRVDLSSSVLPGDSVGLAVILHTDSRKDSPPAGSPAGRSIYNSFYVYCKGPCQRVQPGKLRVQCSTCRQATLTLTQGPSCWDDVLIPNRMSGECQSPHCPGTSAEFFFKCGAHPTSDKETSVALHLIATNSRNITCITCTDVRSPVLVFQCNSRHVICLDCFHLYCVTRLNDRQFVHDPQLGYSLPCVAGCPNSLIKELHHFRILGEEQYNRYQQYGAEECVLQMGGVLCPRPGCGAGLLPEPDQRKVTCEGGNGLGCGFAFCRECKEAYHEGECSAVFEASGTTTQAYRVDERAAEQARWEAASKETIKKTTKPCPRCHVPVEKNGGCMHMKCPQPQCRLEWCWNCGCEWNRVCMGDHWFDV
How it was run: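 Heat-activated His-Parkin (5 min, 58 °C; 40 nM) was preincubated 15 min with compound, then reacted 60 min at 22 °C with 70 nM HA-Ub-VS in 50 mM HEPES pH 8.5, 150 mM NaCl, 0.01% Tween 20, 0.1% BSA. Probe labelling was read by anti-His-Eu/anti-HA-XL665 TR-FRET (665/615 ratio). % activation was normalized to DMSO and 100 nM control activator, then fitted with a four-parameter curve (Bottom=0, Top=100).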

[2] = tested on: A549 (lung); test: Cancer cell proliferation assay (acid phosphatase); type: cell-based; settings: Table 6A, 72 hrs, read-out: A549 IC50
Method: (§1) Measurement of the inhibitive effect of compounds on cancer cell proliferation was performed. Various cell lines were tested, including HCT-116 (colon); A549 (lung); TOV-21G (ovarian); Calu-6 (lung); and LS-174T (colon); and cell lines H1703 (Lung) and SKOV3 (ovarian); JEKO-1 (lymophoma); TOV-112D (ovarian) are tested. The assays were performed under the following conditions: Cells are harvested at a concentration of 4×10^4 cells/ml in media. Volumes of 100 μl/well of these cell suspensions were added to a 96 well plate using a multichannel pipette. Plates were gently agitated to ensure an even dispersion of cells over a given plate. Cells were then incubated at 37° C., 5% CO2 overnight. Following this, 100 μl of compound at varying concentrations was added to wells in triplicate. Control wells are those with 100 μl media containing 0.33% DMSO added to cell suspension (this is the equivalent volume of DMSO found in the highest concentration of drug). Plates were then gently agitated, as above, and incubated at 37° C., 5% CO2 for 72 hrs (control wells have reached 80-90% confluency). Assessment of cell proliferation in the presence of the compound was determined by the acid phosphatase assay.
(§2) Following the incubation period of 72 hrs, media was removed from the plates. Each well on the plate was washed twice with 100 μl PBS. This was then removed and 100 μl of freshly prepared phosphatase substrate (10 mM p-nitrophenol phosphate in 0.1M sodium acetate, 0.1% triton X-100, pH 5.5) was added to each well. The plates were then incubated in the dark at 37° C. for 2 hours. Colour development was monitored during this time. The enzymatic reaction was stopped by the addition of 50 μl of 1N NaOH. The plate was read in a dual beam plate reader at 405 nm with a reference wavelength of 620 nm. The absorbance reading of the latter is subtracted from the former, and the effect of the drug on cell proliferation was then measured as a percentage against the control cells (DMSO), which is taken as 0% inhibition.

[3] = tested on: HCT-116 (colon); test: Cancer cell proliferation assay (acid phosphatase); type: cell-based; settings: Table 6A, 72 hrs, read-out: HCT-116 IC50
Method: as §1, §2

[4] = tested on: TOV-21G (ovarian); test: Cancer cell proliferation assay (acid phosphatase); type: cell-based; settings: Table 6A, 72 hrs, read-out: TOV-21G IC50
Method: as §1, §2

[5] = tested on: LS-174T (colon); test: Cancer cell proliferation assay (acid phosphatase); type: cell-based; settings: Homo sapiens, LS174T; Table 6A; 72 hrs
Method: as §1, §2

[6] = Microsomal stability assay, rat liver microsomes; type: in vitro ADME; settings: pH 7.4; rat liver microsomes 1.0 mg/mL, 1 μM compound, NADPH; read-out: RLM t1/2
Method: (§3) Compounds were also tested for metabolic stability in both rat liver microsomes (RLM) and the compounds are tested for human liver microsomes (HLM) and their half-life is calculated (See Tables 5A and 5B). The assay was performed as follows. The total volume for each incubation was 250 μL. A 100 μM DMSO solution of compound (diluted from 10 mM stock solution) was spiked into 50 mM KH2PO4 (pH 7.4) buffer containing liver microsome at a concentration of 1.0 mg/mL. The reaction was initiated by the addition of 50 μL of 1 mM NADPH. The final concentration of each compound was 1 μM (1% DMSO). The positive controls, phenacetin for CYP1A2, diclofenac for CYP2C9, omeprazole for CYP2C19, dextromethorphan for CYP2D6 and midazolam for CYP3A4 were added to a separate tube with the final substrate concentrations of 1 μM (1% DMSO) for evaluating the enzyme activities in the liver microsomes. At 0, 15, 30 and 60 min, an aliquot of 15 μL reaction mixtures were removed and 200 μL of methanol (with internal standard of 25 ng/mL propranolol) was added to quench the reaction. The resulting mixture was centrifuged and supernatant was used for LC-MS/MS analysis.
(§4) The signals for each compound, or the metabolites for the probe substrates and the internal standard were integrated and the peak area ratios to internal standard were generated. Percent parent remaining at a specified timepoint was calculated based on the peak area ratios at time 0 (as 100%) for in vitro metabolic stability studies in liver microsome and hepatocyte. The observed rate constant (kobs) for the metabolism of substrates was calculated by plotting the natural log of percentage substrate remaining versus time of incubation with the slope being kobs. The half-life (T1/2) was calculated according to the following equation: T1/2=[…]

[7] = Microsomal stability assay, human liver microsomes; type: in vitro ADME; settings: pH 7.4; human liver microsomes 1.0 mg/mL, 1 μM compound, NADPH; read-out: HLM t1/2
Method: as §3, §4

[8] = tested on: JEKO-1 (lymophoma); test: Cancer cell proliferation assay (acid phosphatase); type: cell-based; settings: Homo sapiens, Table 6B, 72 hrs, read-out: JEKO-1 IC50
Method: as §1, §2

[9] = tested on: TOV-112D (ovarian); test: Cancer cell proliferation assay (acid phosphatase); type: cell-based; settings: Homo sapiens, TOV112D; Table 6B; 72 hrs; read-out: TOV-112D IC50
Method: as §1, §2

Row | SMILES | EC50 [1] [µM] | IC50 ([2]; Homo sapiens, A549, 72 h) [nM] | IC50 ([3]; Homo sapiens, HCT-116, 72 h) [nM] | IC50 ([4]; Homo sapiens, TOV21G, 72 h) [nM] | other results
1 | Cc1ccccc1C(=O)Nc1nc(NC(=O)c2ccccc2C)n(-c2ccc(N3CCN(C(=O)OC(C)(C)C)CC3)cc2)n1 [Compound 59] | 3 | 810000 | 801000 | – | IC50 ([4]; Homo sapiens, TOV21G, 72 h, heading: TOV-21G IC50): 938 nM
2 | Cc1ccccc1C(=O)Nc1nc(NC(=O)c2ccno2)n(-c2ccc(OC(F)(F)F)cc2)n1 [Compound 71] | 3 | 2400 | 2500 | – | –
3 | Cc1ccccc1C(=O)Nc1nc(NCc2ccccc2Cl)nn1-c1ccc(OC(F)(F)F)cc1 [Compound 116] | 2 | > 2500 | > 2500 | > 2500 | –
4 | Cc1cccc(-c2nc(NC(=O)c3ccccc3C)n(-c3ccc(OC(F)(F)F)cc3)n2)n1 [Compound 126] | 2 | 1400 | 1700 | 1900 | IC50 [5]: 1000 nM
5 | Cc1cccc(-c2nc(NC(=O)c3ccccc3C)n(-c3ccc(Cl)cc3)n2)n1 [Compound 127] | 2 | 1100 | 1700 | 2100 | IC50 [5]: 1600 nM
6 | Cc1ccccc1C(=O)Nc1nc(-c2cccc(F)n2)nn1-c1cccc(F)c1 [Compound 128] | 5 | 2500 | 2500 | 2400 | –
7 | Cc1ccccc1C(=O)Nc1nc(-c2cccc(F)n2)nn1-c1ccc(OC(F)(F)F)cc1 [Compound 129] | 3 | 2500 | 2400 | 2000 | –
8 | Cc1ccccc1C(=O)Nc1nc(-c2cccc(F)n2)nn1-c1ccc(C(F)(F)F)cc1 [Compound 131] | 2 | 2300 | 2300 | 2200 | –
9 | Cc1ccccc1C(=O)Nc1nc(-c2cccc(F)n2)nn1-c1cccc(F)c1 [Compound 132] | 3 | – | – | – | IC50 [2]: 2400 nM; IC50 [3]: 2200 nM; IC50 [4]: 1900 nM
10 | COc1ccccc1-c1nc(NC(=O)c2ccccc2C)n(-c2ccc(OC(F)(F)F)cc2)n1 [Compound 154] | – | – | > 2500 | – | half-life at 1 μM [6]: 1.7 h; half-life at 1 μM [7]: 2.22 h
11 | Cc1ccccc1C(=O)Nc1nc(-c2ccccc2O)nn1-c1ccc(C(F)(F)F)cc1 [Compound 156] | – | – | 240 | – | half-life at 1 μM [6]: 0.395 h; half-life at 1 μM [7]: 2.63 h; IC50 [8]: 80 nM; IC50 [9]: 40 nM
12 | Cc1ccc(O)c(-c2nc(NC(=O)c3ccccc3C)n(-c3ccc(OC(F)(F)F)cc3)n2)c1 [Compound 159] | – | – | 300 | – | half-life at 1 μM [6]: 2.63 h; half-life at 1 μM [7]: 2.97 h; IC50 [8]: 90 nM; IC50 [9]: 60 nM

More lines, main results first:

Row | EC50 [1] [µM] | IC50 ([2]; Homo sapiens, A549, 72 h) [nM] | IC50 ([3]; Homo sapiens, HCT-116, 72 h) [nM] | IC50 ([4]; Homo sapiens, TOV21G, 72 h) [nM] | SMILES | other results
13 | 8 | 2400 | 2300 | 2400 | Cc1ccccc1C(=O)Nc1nc(NC(=O)c2ccccc2C)n(-c2ccc(N3CCC3)cc2)n1 [Compound 64] | IC50 [5]: 2600 nM
14 | 12 | 2500 | 2500 | – | Cc1ccccc1C(=O)Nc1nc(NC(=O)c2ccno2)n(-c2cccc(F)c2)n1 [Compound 73] | –
15 | 4 | 2500 | 2400 | – | Cc1ccccc1C(=O)Nc1nc(NC(=O)c2ccno2)n(-c2ccc(C(F)(F)F)cc2)n1 [Compound 75] | IC50 [5]: 1000 nM
16 | 1.5 | > 2500 | > 2500 | > 2500 | Cc1ccccc1C(=O)Nc1nc(NCc2ccccc2)nn1-c1ccc(Cl)cc1 [Compound 108] | –
17 | 1 | 2500 | 2300 | 1800 | Cc1cccc(-c2nc(NC(=O)c3ccccc3C)n(-c3ccc(C(F)(F)F)cc3)n2)n1 [Compound 133] | –
18 | 4 | 2600 | 2300 | 1800 | Cc1ccccc1C(=O)Nc1nc(-c2cccc(F)n2)nn1-c1ccc(Cl)cc1 [Compound 134] | –
19 | 1 | 300 | 400 | 500 | Cc1ccccc1C(=O)Nc1nc(-c2ncccc2C)nn1-c1cccc(F)c1 [Compound 146] | –
20 | – | – | 240 | – | Cc1ccccc1C(=O)Nc1nc(-c2ccccc2O)nn1-c1ccc(Cl)cc1 [Compound 155] | half-life at 1 μM [6]: 0.29 h; half-life at 1 μM [7]: 1.06 h; IC50 [8]: 40 nM; IC50 [9]: 40 nM
21 | – | – | 350 | – | Cc1ccccc1C(=O)Nc1nc(-c2ccccc2O)nn1-c1cccc(F)c1 [Compound 157] | half-life at 1 μM [6]: 0.275 h; half-life at 1 μM [7]: 0.7 h; IC50 [8]: 80 nM; IC50 [9]: 120 nM
22 | – | – | 240 | – | Cc1ccccc1C(=O)Nc1nc(-c2cc(Cl)ccc2O)nn1-c1ccc(OC(F)(F)F)cc1 [Compound 158] | half-life at 1 μM [6]: 2.82 h; half-life at 1 μM [7]: 2.75 h; IC50 [8]: 200 nM; IC50 [9]: 190 nM
23 | – | 2300 | 2000 | 2300 | Cc1cccc(C(=O)Nc2nc(NC(=O)c3cccc(C)c3)n(-c3ccccc3)n2)c1 [Compound F3] | –
